pIC50, pKi: −log10 of the molar value. The source made the active and inactive calls. No cut-off for these calls is given here.
Tests used:
[1] = Antioxidant activity assessed as DPPH radical scavenging activity at 10 uM; type: functional
[2] = biological target: T1, Tyrosinase (Agaricus bisporus, UniProt O42713); test: Inhibition of mushroom tyrosinase assessed as reduction in dopachrome formation using L-DOPA as substrate by ELISA
T1 sequence (O42713 whole entry): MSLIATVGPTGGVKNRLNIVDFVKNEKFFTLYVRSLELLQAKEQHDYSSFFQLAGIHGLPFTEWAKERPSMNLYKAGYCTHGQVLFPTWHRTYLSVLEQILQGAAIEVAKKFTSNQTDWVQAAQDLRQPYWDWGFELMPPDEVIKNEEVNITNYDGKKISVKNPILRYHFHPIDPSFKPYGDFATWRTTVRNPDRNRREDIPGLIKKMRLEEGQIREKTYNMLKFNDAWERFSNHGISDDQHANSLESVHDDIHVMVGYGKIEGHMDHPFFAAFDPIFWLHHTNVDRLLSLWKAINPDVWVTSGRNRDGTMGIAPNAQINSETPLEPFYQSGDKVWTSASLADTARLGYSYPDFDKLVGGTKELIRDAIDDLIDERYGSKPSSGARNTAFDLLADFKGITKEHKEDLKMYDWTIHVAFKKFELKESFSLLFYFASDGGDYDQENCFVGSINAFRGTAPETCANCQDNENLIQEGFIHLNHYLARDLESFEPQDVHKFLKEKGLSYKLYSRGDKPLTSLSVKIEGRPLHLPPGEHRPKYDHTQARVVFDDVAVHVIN

[3] = biological target: T2, Tyrosinase (Agaricus bisporus) (UniProt O42713); test: Potency index, ratio of kojic acid IC50 to compound IC50 for inhibition of mushroom tyrosinase using L-DOPA as substrate by ELISA
T2 sequence (whole entry): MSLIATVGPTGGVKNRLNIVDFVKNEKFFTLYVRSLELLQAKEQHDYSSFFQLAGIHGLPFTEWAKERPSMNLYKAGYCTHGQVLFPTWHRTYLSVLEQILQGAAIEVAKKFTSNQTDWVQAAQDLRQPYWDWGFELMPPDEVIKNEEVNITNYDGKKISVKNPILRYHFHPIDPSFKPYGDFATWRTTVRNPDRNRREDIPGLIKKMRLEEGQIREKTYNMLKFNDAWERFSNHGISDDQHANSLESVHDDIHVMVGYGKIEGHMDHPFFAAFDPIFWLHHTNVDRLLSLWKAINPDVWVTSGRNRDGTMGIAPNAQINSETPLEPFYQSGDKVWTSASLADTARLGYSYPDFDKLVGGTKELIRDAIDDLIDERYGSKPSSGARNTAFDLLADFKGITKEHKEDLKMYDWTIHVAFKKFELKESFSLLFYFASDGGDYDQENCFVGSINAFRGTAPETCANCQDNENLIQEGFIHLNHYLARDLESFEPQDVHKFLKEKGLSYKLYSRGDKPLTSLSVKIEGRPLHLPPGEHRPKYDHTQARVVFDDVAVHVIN

[4] = biological target: T3, Tyrosinase (Homo sapiens, UniProt P14679); test: Inhibition of tyrosinase (unknown origin)
T3 sequence (P14679 whole entry): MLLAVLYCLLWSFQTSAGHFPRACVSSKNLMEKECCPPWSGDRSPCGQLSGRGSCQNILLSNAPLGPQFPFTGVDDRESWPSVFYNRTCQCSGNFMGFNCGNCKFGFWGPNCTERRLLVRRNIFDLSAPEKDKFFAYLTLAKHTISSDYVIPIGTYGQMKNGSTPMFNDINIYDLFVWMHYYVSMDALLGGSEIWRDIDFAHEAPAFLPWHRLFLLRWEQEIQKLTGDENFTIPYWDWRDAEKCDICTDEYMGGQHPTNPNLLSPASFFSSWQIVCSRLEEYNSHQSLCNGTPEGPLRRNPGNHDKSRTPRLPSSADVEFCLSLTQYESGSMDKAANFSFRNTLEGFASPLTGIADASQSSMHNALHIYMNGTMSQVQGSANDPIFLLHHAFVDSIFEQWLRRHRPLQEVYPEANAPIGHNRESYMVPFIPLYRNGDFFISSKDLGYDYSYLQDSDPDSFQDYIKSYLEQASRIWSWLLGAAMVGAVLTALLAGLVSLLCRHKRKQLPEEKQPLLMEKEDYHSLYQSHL

[5] = tested on: HFF; test: cells; conditions: Homo sapiens
Description: Cytotoxicity against human HFF cells assessed as reduction in cell viability by MTT assay

[6] = biological target: T2, Tyrosinase (Agaricus bisporus); test: Non-competitive inhibition of mushroom tyrosinase using L-DOPA as substrate by Lineweaver-Burk double reciprocal plot analysis
[7] = biological target: T1, Tyrosinase; test: Competitive inhibition of mushroom tyrosinase using L-DOPA as substrate by Lineweaver-Burk double reciprocal plot analysis
[8] = tested on: B16-F10; test: cells; conditions: Mus musculus
Description: Cytotoxicity against mouse B16-F10 cells assessed as reduction in cell viability by MTT assay

[9] = biological target: T1, Tyrosinase; test: Inhibition of mushroom tyrosinase using L-tyrosine as substrate measured after 15 mins by microplate reader analysis
[10] = biological target: T1, Tyrosinase; test: Inhibition of mushroom tyrosinase using L-tyrosine as substrate measured after 30 mins by microplate reader analysis

Structure (SMILES)	pIC50 [2]	Activity [1]	also measured
COC(=O)c1ccc(OCc2cn(Cc3cc(=O)c(O)co3)nn2)cc1	6.34	inactive	
COc1cc(C=O)cc(OC)c1OCc1cn(Cc2cc(=O)c(O)co2)nn1	5.43	inactive	
C/C=C/c1ccc(O)c(OC)c1			pIC50 [4]: 4.48
COc1cc(C=O)ccc1O [VANILLIN]			pIC50 [9]: 2.39
Oc1ccc2c(c1)OCO2			pIC50 [10]: 5.17

Continued, in another order:

pIC50 [2]	Structure (SMILES)	Activity [1]	also measured
6.16	Cc1ccc(C(C)C)c(OCc2cn(Cc3cc(=O)c(O)co3)nn2)c1	inactive	
7.22	O=c1cc(Cn2cc(COc3ccc4c(c3)OCO4)nn2)occ1O	inactive	Ratio IC50 [3]: 133
5.70	COc1cc(C=O)ccc1OCc1cn(Cc2cc(=O)c(O)co2)nn1	inactive	
7.52	COc1cc(C(C)=O)ccc1OCc1cn(Cc2cc(=O)c(O)co2)nn1	inactive	pIC50 [5]: 3.67; Kis [6]: 0.19 µM; pKi [7]: 7.15; pIC50 [8]: 3.38; Ratio IC50 [3]: 133
5.71	COc1ccc(C=O)cc1OCc1cn(Cc2cc(=O)c(O)co2)nn1	inactive	

Source: ChEMBL document CHEMBL4818984, “Kojic acid-natural product conjugates as mushroom tyrosinase inhibitors” (Eur J Med Chem, 2020)
